Measured values: patent publication US10017550B2, “Mycobacterium tuberculosis porins and toxins and related methods” (priority 2011, dated 2018)
Converted amounts (≈) assume the structure as drawn.

B1: N-terminal domain of MtpA: N-terminal domain (aa 1-444) of MtpA (Rv3903c), HA- and His-tagged, expressed in and purified from M. smegmatis (protein, UniProt O05442 1-444, looked up, fragment)
chain: MAPLAVDPAALDSAGGAVVAAGAGLGAVISSLTAALAGCAGMAGDDPAGAVFGRSYDGSAAALVQAMSVARNGLCNLGDGVRMSAHNYSLAEAMSDVAGRAAPLPAPPPSGCVGVGAPPSAVGGGGGAPKGWGWVAPYIGMIWPNGDSTKLRAAAVAWRSAGTQFALTEIQSTAGPMGVIRAQQLPEAGLIESAFADAYASTTAVVGQCHQLAAQLDAYAARIDAVHAAVLDLLARICDPLTGIKEVWEFLTDQDEDEIQRIAHDIAVVVDQFSGEVDALAAEITAVVSHAEAVITAMADHAGKQWDRFLHSNPVGVVIDGTGQQLKGFGEEAFGMAKDSWDLGPLRASIDPFGWYRSWEEMLTGMAPLAGLGGENAPGVVESWKQFGKSLIHWDEWTTNPNEALGKTVFDAATLALPGGPLSKLGSKGRDILAGVRGLKERLE
modifications: HA and His tags
notes: N-terminal domain (aa 1-444) of MtpA (Rv3903c), HA- and His-tagged, expressed in and purified from M. smegmatis
B2: N-terminal domain of MtpA (aa 49-444): truncated N-terminal domain of MtpA, codon optimized, Strep-, HA- and His-tagged, purified from E. coli (protein, UniProt O05442 49-444, looked up, fragment)
chain: GAVFGRSYDGSAAALVQAMSVARNGLCNLGDGVRMSAHNYSLAEAMSDVAGRAAPLPAPPPSGCVGVGAPPSAVGGGGGAPKGWGWVAPYIGMIWPNGDSTKLRAAAVAWRSAGTQFALTEIQSTAGPMGVIRAQQLPEAGLIESAFADAYASTTAVVGQCHQLAAQLDAYAARIDAVHAAVLDLLARICDPLTGIKEVWEFLTDQDEDEIQRIAHDIAVVVDQFSGEVDALAAEITAVVSHAEAVITAMADHAGKQWDRFLHSNPVGVVIDGTGQQLKGFGEEAFGMAKDSWDLGPLRASIDPFGWYRSWEEMLTGMAPLAGLGGENAPGVVESWKQFGKSLIHWDEWTTNPNEALGKTVFDAATLALPGGPLSKLGSKGRDILAGVRGLKERLE
modifications: Strep, HA and His tags
notes: truncated N-terminal domain of MtpA, codon optimized, Strep-, HA- and His-tagged, purified from E. coli

Tests used:
[1] = tested on: M. Bovis BCG ΔMtpA + MtpA; format: cell-based
[2] = tested on: M. Bovis BCG ΔMtpA + MspA; format: cell-based
M. Bovis BCG ΔMtpA = format: cell-based; conditions: for Resistance factor: ratio MICΔMtpA/MICwt
M. Bovis BCG Wild-type = experiment: microbe, parasite or virus in culture; format: cell-based; conditions: Mycobacterium tuberculosis variant bovis BCG
[3] = tested on: ΔMtpA mutant of M. bovis BCG in human monocyte-derived macrophages (HMDM); format: cell-based
[4] = tested on: wild-type M. bovis BCG in human monocyte-derived macrophages (HMDM); format: cell-based
[5] = Channel activity analysis, planar lipid bilayer single channel recording; format: biochemical

Molecule | MIC for M. Bovis BCG ΔMtpA + MtpA [1] | MIC for M. Bovis BCG ΔMtpA + MspA [2] | MIC for M. Bovis BCG ΔMtpA (M. Bovis BCG ΔMtpA) | Resistance factor (M. Bovis BCG ΔMtpA) | MIC (M. Bovis BCG Wild-type; wild-type strain) | further results
CC1(C)S[C@@H]2[C@H](NC(=O)[C@H](N)c3ccccc3)C(=O)N2[C@H]1C(=O)O [Ampicillin] | 60 µg/mL | 60 µg/mL | 960 µg/mL | 32 | 30 µg/mL (≈ 85.9 µM) | increased minimal inhibitory concentration (MIC) / resistance in the ΔMtpA strain (M. Bovis BCG ΔMtpA): 32 fold
O=C(N[C@H](CO)[C@H](O)c1ccc([N+](=O)[O-])cc1)C(Cl)Cl [Chloramphenicol] | 8 µg/mL | 8 µg/mL | 64 µg/mL | 16 | 4 µg/mL (≈ 12.4 µM) | increased minimal inhibitory concentration (MIC) / resistance in the ΔMtpA strain (M. Bovis BCG ΔMtpA): 16 fold
O=C(O)c1cn(C2CC2)c2cc(N3CCNCC3)c(F)cc2c1=O [Ciprofloxacin] | 2 µg/mL | 2 µg/mL | – | – | – | MIC (M. Bovis BCG Wild-type): 1 µg/mL (≈ 3.02 µM)
CC[C@H]1OC(=O)[C@H](C)[C@@H](O[C@H]2C[C@@](C)(OC)[C@@H](O)[C@H](C)O2)[C@H](C)[C@@H](O[C@@H]2O[C@H](C)C[C@H](N(C)C)[C@H]2O)[C@](C)(OC)C[C@@H](C)C(=O)[C@H](C)[C@@H](O)[C@]1(C)O [Clarithromycin] | 0.25 µg/mL | 0.5 µg/mL | >2 µg/mL | >16 | 0.125 µg/mL (≈ 0.167 µM) | –
CC[C@H]1OC(=O)[C@H](C)[C@@H](O[C@H]2C[C@@](C)(OC)[C@@H](O)[C@H](C)O2)[C@H](C)[C@@H](O[C@@H]2O[C@H](C)C[C@H](N(C)C)[C@H]2O)[C@](C)(O)C[C@@H](C)C(=O)[C@H](C)[C@@H](O)[C@]1(C)O [Erythromycin A] | 16 µg/mL | 32 µg/mL | – | >16 | 16 µg/mL (≈ 21.8 µM) | –
CC[C@@H](CO)NCCN[C@@H](CC)CO [Ethambutol] | 0.125 µg/mL | 0.125 µg/mL | >1 µg/mL | >8 | 0.125 µg/mL (≈ 0.612 µM) | change of resistance / MIC in the ΔMtpA mutant, in words (M. Bovis BCG ΔMtpA): more than eight-fold
NNC(=O)c1ccncc1 [Isoniazid] | – | 0.25 µg/mL | >1 µg/mL | >4 | 0.25 µg/mL (≈ 1.82 µM) | change of resistance / MIC in the ΔMtpA mutant, in words (M. Bovis BCG ΔMtpA): more than eight-fold
C[C@H]1COc2c(N3CCN(C)CC3)c(F)cc3c(=O)c(C(=O)O)cn1c23 [Levofloxacin] | – | – | – | – | 0.125 µg/mL (≈ 0.346 µM) | –
COc1c(N2C[C@@H]3CCCN[C@@H]3C2)c(F)cc2c(=O)c(C(=O)O)cn(C3CC3)c12 [Moxifloxacin] | – | – | – | – | 0.5 µg/mL (≈ 1.25 µM) | –
CCn1cc(C(=O)O)c(=O)c2cc(F)c(N3CCNCC3)cc21 [Norfloxacin] | 2 µg/mL | 2 µg/mL | 4 µg/mL | 4 | 1 µg/mL (≈ 3.13 µM) | –
CC1COc2c(N3CCN(C)CC3)c(F)cc3c(=O)c(C(=O)O)cn1c23 (stereo not shown) [Ofloxacin] | – | – | – | – | 0.25 µg/mL (≈ 0.692 µM) | –
CO[C@H]1/C=C/O[C@@]2(C)Oc3c(C)c(O)c4c(O)c(c(/C=N/N5CCN(C)CC5)c(O)c4c3C2=O)NC(=O)/C(C)=C\C=C\[C@H](C)[C@H](O)[C@@H](C)[C@@H](O)[C@@H](C)[C@H](OC(C)=O)[C@@H]1C [Rifampicin] | – | – | – | – | – | MIC (M. Bovis BCG Wild-type): 0.008 µg/mL (≈ 0.00972 µM)
[H]/N=C(/N)N[C@H]1[C@H](O)[C@@H](O)[C@H](O[C@@H]2O[C@@H](C)[C@](O)(C=O)[C@H]2O[C@@H]2O[C@@H](CO)[C@H](O)[C@@H](O)[C@@H]2NC)[C@@H](N/C(N)=N\[H])[C@@H]1O [Streptomycin] | 0.32 µg/mL | 0.32 µg/mL | 0.64 µg/mL | 4 | 0.16 µg/mL (≈ 0.275 µM) | –
CN(C)[C@@H]1C(O)=C(C(N)=O)C(=O)[C@@]2(O)C(O)=C3C(=O)c4c(O)cccc4[C@@](C)(O)[C@H]3C[C@@H]12 [Tetracycline] | – | – | – | – | – | MIC (M. Bovis BCG Wild-type): 31.2 µg/mL (≈ 70.3 µM)
CN[C@H](CC(C)C)C(=O)N[C@H]1C(=O)N[C@@H](CC(N)=O)C(=O)N[C@H]2C(=O)N[C@H]3C(=O)N[C@H](C(=O)N[C@H](C(=O)O)c4cc(O)cc(O)c4-c4cc3ccc4O)[C@H](O)c3ccc(c(Cl)c3)Oc3cc2cc(c3O[C@@H]2O[C@H](CO)[C@@H](O)[C@H](O)[C@H]2O[C@H]2C[C@](C)(N)[C@H](O)[C@H](C)O2)Oc2ccc(cc2Cl)[C@H]1O [Vancomycin] | 10 µg/mL | 10 µg/mL | 20 µg/mL | 4 | – | MIC (M. Bovis BCG Wild-type): 5 µg/mL (≈ 3.45 µM)
N[C@@H]1CON=C1O [cycloserine] | 4 µg/mL | 4 µg/mL | 8 µg/mL | 2 | 4 µg/mL (≈ 39.2 µM) | –
Nc1ccc(C(=O)O)c(O)c1 [p-aminosalicylic acid] | 2 µg/mL | 2 µg/mL | >8 µg/mL | >4 | 2 µg/mL (≈ 13.1 µM) | change of resistance / MIC in the ΔMtpA mutant, in words (M. Bovis BCG ΔMtpA): more than eight-fold
γ-interferon: human IFN-γ, induces nitric oxide synthase activity in macrophages | – | – | – | – | – | survival in treated macrophages compared to untreated cells [3]: no significant difference; bacteria recovered from stimulated HMDMs [4]: drastic decrease in bacteria recovered
B1 | – | – | – | – | – | most frequent (main) single channel conductance [5]: 4.0±0.2 nS
B2 | – | – | – | – | – | single channel conductance of protein purified from E. coli compared to that purified from M. smegmatis [5]: almost identical
